Assay results reported in patent publication EP4725508A1, “LIGAND-DRUG CONJUGATE HAVING FREE PAYLOAD RECOVERY UNIT” (RemeGen Co., Ltd., priority 2024, dated 2025).
Like-named read-outs stand apart in the source and are kept apart here. Square brackets hold non-standard residues; d marks the D form. Peptide text beside a SMILES is read from it. * marks the point of attachment. Dolaproine = CO[C@@H]([C@@H]1CCCN1)[C@@H](C)C(=O)O; Dil = CC[C@H](C)[C@H](NC)[C@@H](CC(=O)O)OC; X1 = C[C@@H](N*)[C@@H](O)c1ccccc1; NMeV = CN[C@H](C(=O)O)C(C)C

Assays:
[1] = molecular target: humanized antibody ABC3320 (Heavy chain: SEQ ID NO: 163; Light chain: SEQ ID NO: 164); assay: Biacore determination, binding affinity with free MMAE; settings: antibody immobilized with ProA probe; free MMAE 50-1.85 nM
Experimental: (§1) Antibody immobilization: 20 µg/mL of antibody was immobilized onto the chip surface using a ProA probe; Binding: Antigen MMAE concentrations were 50, 16.7, 5.5, 1.85, and 0 nM. The flow rate was set at 30 µL/min, and the contact time was 600 s; Dissociation: The chip was washed with HEPES buffer for 300 s. Regeneration: Regeneration was performed with 10 mM Glycine-HCl.

HCC1954 [2] = assay: Cell killing activity; assay type: cell-based
OVCAR3 [3] = assay: Cell killing activity; assay type: cell-based
[4] = system: chimeric antibody No. 133 (VH SEQ ID NO: 46, VL SEQ ID NO: 49); assay: Blocking experiment (ELISA, OVA-MMAF coated); assay type: binding, mouse; settings: MMAE+antibody; OVA-MMAF coated 200 ng/mL; antibody 100 ng/mL
Experimental: (§2) Blocking Experiment: OVA-MMAF was coated onto ELISA plates at a concentration of 200 ng/mL and incubated at 37°C for 1 h. The plates were blocked with 5% skim milk and incubated at 37°C for 2 h. The antibody was diluted to a final concentration of 100 ng/mL. MMAE and MMAE-Linker were diluted at concentrations of 600, 200, 66.67, 22.22, 7.41, 2.47, 0.82, 0.27, 0.09, 0.03, and 0.01 nM. 50 µL MMAE + 50 µL chimeric antibody and 50 µL MMAE-Linker + 50 µL chimeric antibody were added respectively to the ELISA plates. The total volume per well was 100 µL. The plates were incubated at 37°C for 1 h. Goat Anti-Human IgG H&L (HRP) (abcam, ab6858) diluted at 1:5000 was added, incubated at 37°C for 1 h, and then subjected to TMB color development. The OD value was determined at 450 nm.
(§3) Blocking Experiment: The experimental steps were the same as the above blocking experiment.

[5] = system: chimeric antibody No. 92 (VH SEQ ID NO: 28, VL SEQ ID NO: 32); assay: Blocking experiment (ELISA, OVA-MMAF coated); assay type: binding, mouse; settings: MMAE+antibody; OVA-MMAF coated 200 ng/mL; antibody 100 ng/mL
Experimental: as §2, §3

[6] = system: chimeric antibody No. 93 (VH SEQ ID NO: 35, VL SEQ ID NO: 38); assay: Blocking experiment (ELISA, OVA-MMAF coated); assay type: binding, mouse; settings: MMAE+antibody; OVA-MMAF coated 200 ng/mL; antibody 100 ng/mL
Experimental: as §2, §3

[7] = system: chimeric antibody No. 132 (VH SEQ ID NO: 39, VL SEQ ID NO: 43); assay: Blocking experiment (ELISA, OVA-MMAF coated); assay type: binding, mouse; settings: MMAE+antibody; OVA-MMAF coated 200 ng/mL; antibody 100 ng/mL
Experimental: as §2, §3

[8] = system: chimeric antibody No. J4 (VH SEQ ID NO: 21, VL SEQ ID NO: 25); assay: Blocking experiment (ELISA, OVA-MMAF coated); assay type: binding, mouse; settings: MMAE+antibody; OVA-MMAF coated 200 ng/mL; antibody 100 ng/mL
Experimental: as §2, §3

[9] = system: chimeric antibody No. 64 (VH SEQ ID NO: 8, VL SEQ ID NO: 12); assay: Blocking experiment (ELISA, OVA-MMAF coated); assay type: binding, mouse; settings: MMAE+antibody; OVA-MMAF coated 200 ng/mL; antibody 100 ng/mL
Experimental: as §2

[10] = system: chimeric antibody No. 62 (VH SEQ ID NO: 1, VL SEQ ID NO: 5); assay: Blocking experiment (ELISA, OVA-MMAF coated); assay type: binding, mouse; settings: MMAE+antibody; OVA-MMAF coated 200 ng/mL; antibody 100 ng/mL
Experimental: as §2

[11] = system: humanized antibody ABC3320 (Heavy chain: SEQ ID NO: 163; Light chain: SEQ ID NO: 164); assay: Blocking experiment (ELISA, OVA-MMAF coated); assay type: binding; settings: MMAE+ antibody; OVA-MMAF coated 200 ng/mL; antibody 100 ng/mL; control in Tables 6, 8, 10, 12
Experimental: as §2, §3

CHOK1 [12] = assay: Cell killing activity; assay type: cell-based
chimeric antibody No. 44 = assay: Biacore determination, binding affinity with free MMAE; design: species or system mouse; settings: antibody immobilized with ProA probe; free MMAE 50-1.85 nM
Experimental: as §1

chimeric antibody No. 69 = assay: as above; design: species or system mouse; settings: antibody immobilized with ProA probe; free MMAE 50-1.85 nM
Experimental: as §1

chimeric antibody No. 89 = assay: as above; design: species or system mouse; settings: antibody immobilized with ProA probe; free MMAE 50-1.85 nM
Experimental: as §1

chimeric antibody No. 92 = assay: as above; design: species or system mouse; settings: antibody immobilized with ProA probe; free MMAE 50-1.85 nM
Experimental: as §1

chimeric antibody No. 74 = assay: as above; design: species or system mouse; settings: antibody immobilized with ProA probe; free MMAE 50-1.85 nM
Experimental: as §1

chimeric antibody No. 1 = assay: as above; design: species or system mouse; settings: antibody immobilized with ProA probe; free MMAE 50-1.85 nM
Experimental: as §1

[13] = molecular target: chimeric antibody No. 62 (VH SEQ ID NO: 1, VL SEQ ID NO: 5); assay: as above; design: species or system mouse; settings: antibody immobilized with ProA probe; free MMAE 50-1.85 nM
Experimental: as §1

chimeric antibody No. 93 = assay: as above; design: species or system mouse; settings: antibody immobilized with ProA probe; free MMAE 50-1.85 nM
Experimental: as §1

Nectin-4 = molecular target: T1, Nectin-4 (Homo sapiens, UniProt Q96NY8); assay: Binding activity with Nectin-4
T1 sequence (Q96NY8 32-510): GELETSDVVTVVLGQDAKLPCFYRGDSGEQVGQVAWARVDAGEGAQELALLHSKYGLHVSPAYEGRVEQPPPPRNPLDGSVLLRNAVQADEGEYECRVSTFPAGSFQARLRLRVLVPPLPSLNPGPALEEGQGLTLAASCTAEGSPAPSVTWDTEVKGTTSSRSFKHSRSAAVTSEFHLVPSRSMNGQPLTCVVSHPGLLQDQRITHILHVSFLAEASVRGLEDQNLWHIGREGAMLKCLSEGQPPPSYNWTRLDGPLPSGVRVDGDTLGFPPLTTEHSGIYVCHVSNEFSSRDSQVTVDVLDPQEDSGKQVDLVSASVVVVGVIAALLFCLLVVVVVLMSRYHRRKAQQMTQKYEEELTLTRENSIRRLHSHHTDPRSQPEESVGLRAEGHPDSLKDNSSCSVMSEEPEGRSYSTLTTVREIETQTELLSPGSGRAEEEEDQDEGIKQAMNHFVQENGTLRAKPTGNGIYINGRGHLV

[14] = system: human bladder cancer cell HT-1376 subcutaneous xenograft; assay: Efficacy in subcutaneous xenograft model; assay type: in vivo, BALB/c-nu mice; settings: equimolar doses
Experimental: Human bladder cancer cells HT-1376 were expanded and cultured, and then subcutaneously inoculated into the right forelimb axilla near the back of BALB/c-nu mice (GemPharmatech, female). Tumor growth was observed. When the tumor volume reached about 90 to 200 mm^3, the mice were randomized into groups based on tumor volume and administered with drugs.
The day of administration was designated as D0. During the experiment, tumor long diameter, short diameter, and body weight were measured twice a week, accompanied by observation of clinical symptoms. At the endpoint of the experiment, the experimental mice were euthanized.

HCC1954 [15] = assay: Cell killing activity; assay type: cell-based; remark: listed apart in the source
[16] = Toxicokinetics of free MMAE in serum (Hybrid LBA LC-MS/MS); assay type: in vivo; settings: BALB/c mice, Nectin4A14-DL01-MMAE 136 mg/kg vs EV 100 mg/kg
Experimental: (§4) Test 1: 18 BALB/c mice, female, with body weights of 16 to 19 g at the time of grouping, were divided into a PR-ADC group (CDCP1A9-DL01-MMAE, 140 mg/kg) and a conventional ADC group (CDCP1A6-DL01-MMAE, 100 mg/kg), both at equimolar doses, with 9 mice in each group (5 for toxicology + 4 for toxicokinetic (TK)), for a total of 2 groups. A single dose was administered, with a dosing volume of 10 mL/kg. The drug-related toxic effects in BALB/c mice for each group were investigated and compared through aspects such as death, clinical observation, body weight, and toxicokinetic detection. The experiment lasted for 14 days.
Free MMAE was determined using a Hybrid LBA LC-MS/MS method. Protein A/G-Beads were used to separate the ADC/PR-ADC, MMAE-bound PR-ADC, and MMAE-bound anti-MMAE antibodies from the serum. The remaining samples were subjected to protein precipitation and then tested for free MMAE using the LC-MS/MS method. Table 34. Toxicity test results of animals in each group
(§5) Test 2: 16 BALB/c mice, female, with body weights of 16 to 20 g at the time of grouping, were divided into PR-ADC group (CDCP1A12-DL01-MMAE, 134 mg/kg) and conventional ADC group (CDCP1A6-DL01-MMAE, 100 mg/kg) dose group, both at equimolar doses, with 8 mice in each group (4 for toxicology + 4 for TK), for a total of 2 groups. A single dose was administered, with a dosing volume of 10 mL/kg. The drug-related toxic effects in BALB/c mice for each group were investigated and compared through aspects such as death, clinical observation, body weight, and toxicokinetic detection. The experiment lasted for 14 days.
Free MMAE was also determined using the Hybrid LBALC-MS/MS method. Table 36. Toxicity test results of animals in each group
(§6) 18 BALB/c mice, female, with body weights of 16 to 19 g at the time of grouping, were divided into a PR-ADC group (Nectin4A14-DL01-MMAE, 136 mg/kg) and a conventional ADC group (EV, 100 mg/kg), both at equimolar doses, with 9 mice in each group (5 for toxicology + 4 for TK), for a total of 2 groups.
Free MMAE was also determined using the Hybrid LBA LC-MS/MS method. Table 38. […]

CHOK1 [17] = assay: Cell killing activity; assay type: cell-based; remark: listed apart in the source
[18] = Comparative study of toxicity in BALB/c mice; assay type: in vivo
Experimental: as §4, §5, §6

OVCAR3 [19] = assay: Cell killing activity; assay type: cell-based; remark: listed apart in the source

CC[C@H](C)[C@@H]([C@@H](CC(=O)N1CCC[C@H]1[C@H](OC)[C@@H](C)C(=O)N[C@H](C)[C@@H](O)c1ccccc1)OC)N(C)C(=O)[C@@H](NC(=O)[C@@H](NC)C(C)C)C(C)C [MMAE, monomethyl auristatin E] (H-[NMeV]V[Dil][Dolaproine]-X1)
Kd [1]: 0.318 nM | ka [1]: 100000 M⁻¹ s⁻¹ | kd [1]: 3.18e-05 s⁻¹ | MIR (%) (HCC1954 [2]): 60.95% | IC50 (HCC1954 [2]; Homo sapiens): 0.31 nM | MIR (%) (OVCAR3 [3]): 3.69% | IC50 (OVCAR3 [3]; Homo sapiens, OVCAR-3): 0.31 nM | IC50 [4]: 1.59 nM | IC50 [5]: 83.8 nM | IC50 [6]: 54.7 nM | IC50 [7]: 1.32 nM | IC50 [8]: 1.89 nM | IC50 [9]: 4.76 nM | IC50 [10]: 1.43 nM | IC50 [11]: 1.37 nM | MIR (%) (CHOK1 [12]): 83.94% | IC50 (CHOK1 [12]; Cricetulus griseus, CHO-K1): 34.9 nM | Kd (chimeric antibody No. 44): 1.78 nM | ka (chimeric antibody No. 44): 326000 M⁻¹ s⁻¹ | kd (chimeric antibody No. 44): 0.00058 s⁻¹ | Kd (chimeric antibody No. 69): 2.14 nM | ka (chimeric antibody No. 69): 70200 M⁻¹ s⁻¹ | kd (chimeric antibody No. 69): 0.00015 s⁻¹ | Kd (chimeric antibody No. 89): 2.11 nM | ka (chimeric antibody No. 89): 61600 M⁻¹ s⁻¹ | kd (chimeric antibody No. 89): 0.00013 s⁻¹ | Kd (chimeric antibody No. 92): 2.66 nM | ka (chimeric antibody No. 92): 67300 M⁻¹ s⁻¹ | kd (chimeric antibody No. 92): 0.000179 s⁻¹ | Kd (chimeric antibody No. 74): 2.14 nM | ka (chimeric antibody No. 74): 84400 M⁻¹ s⁻¹ | kd (chimeric antibody No. 74): 0.00018 s⁻¹ | Kd (chimeric antibody No. 1): 1.78 nM | ka (chimeric antibody No. 1): 53500 M⁻¹ s⁻¹ | kd (chimeric antibody No. 1): 9.52e-05 s⁻¹ | Kd [13]: 0.741 nM | ka [13]: 105000 M⁻¹ s⁻¹ | kd [13]: 7.78e-05 s⁻¹ | Kd (chimeric antibody No. 93): 2.81 nM | ka (chimeric antibody No. 93): 85700 M⁻¹ s⁻¹ | kd (chimeric antibody No. 93): 0.000241 s⁻¹

Enfortumab vedotin [EV]
Top OD450 (Nectin-4): 1.23 | TGI [14]: 71% | IC50 (HCC1954 [15]): 148 nM | MIR (%) (HCC1954 [15]): 70.90% | Free MMAE AUC [16]: 9.09097 ± 0.65517 µM·h | Free MMAE Cmax [16]: 76.08 ± 4.88 nM | Free MMAE Tmax [16]: 24 h | MIR (%) (CHOK1 [17]): 17.40% | Clinical Observation ([18]; Nectin4A14-DL01-MMAE 136 mg/kg vs EV 100 mg/kg): Piloerection (4/4), Hunched posture (5/5), Squinting eyes (5/5), Lethargy (1/5) | Death ([18]; Nectin4A14-DL01-MMAE 136 mg/kg vs EV 100 mg/kg (equimolar)): 2/9 | Max Body Weight Change Rate ([18]; Nectin4A14-DL01-MMAE 136 mg/kg vs EV 100 mg/kg, day in brackets in the cell): -24.4% (D7) | tolerance ([18]; Nectin-4 comparison): less than 100 mg/kg | IC50 (OVCAR3 [19]): 33.3 nM | MIR (%) (OVCAR3 [19]): 60.27%
